Results published in patent US12612412B2, “Antiviral heterocyclic compounds” (Enanta Pharmaceuticals, Inc., priority 2021, dated 2026).

test system: genotype A, "Long" strain RSV; assay: RSV-A assay (CPE protection in Hep-2 cells, ATPlite readout); assay type: cell-based, Human respiratory syncytial virus (HRSV); conditions: RSV-A Long strain, MOI 0.1, CPE protection, read-out: Human RSV-A (“Long”) EC50
Outline: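 In this cytopathic-effect protection format, infected Hep-2 cultures (MOI 0.1) are exposed to compound for 5 days. Surviving cell ATP is quantified with ATPlite, and EC50 is determined.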

EC50 | SMILES
< 200 nM | COc1cc(C(=O)NC[C@@](O)(c2cc3c(c(-c4ccc(F)c(Br)c4F)n2)OC[C@]3(C)C(N)=O)C(F)(F)F)cc2cn(C3CC3)nc12 [Example 1220]

same assay, conditions: human respiratory syncytial virus, RSV-A Long strain, MOI 0.1, CPE protection, read-out: Human RSV-A (“Long”) EC50

SMILES | EC50
COc1cc(C(=O)NC[C@](O)(c2nc(-c3ccc(F)c(Cl)c3F)c3c(c2Cl)[C@@](C)(C(N)=O)CO3)C2CC2)cc2cn(C3CC3)nc12 [Example 1217] | > 200 nM
COc1cc(C(=O)NC[C@@](O)(c2cc3c(c(-c4cc(Br)c(F)cc4F)n2)OC[C@]3(C)C(N)=O)C(F)(F)F)cc2cn(C3CC3)nc12 [Example 1222] | < 200 nM
COc1cc(C(=O)NC[C@@](O)(c2cc3c(c(-c4cccc(Br)c4F)n2)OC[C@]3(C)C(N)=O)C(F)(F)F)cc2cn(C3CC3)nc12 [Example 1224] | < 200 nM
COc1cc(C(=O)NC[C@](O)(c2cc3c(c(-c4cccc(Br)c4F)n2)OC[C@]3(C)C(N)=O)C(F)(F)F)cc2cn(C3CC3)nc12 [Example 1225] | < 200 nM
COc1cc(C(=O)NCC(O)(c2cc3c(c(-c4ccc5c(c4)OC(F)(F)C5(F)F)n2)OC[C@]3(C)C(N)=O)C(F)(F)F)cc2cn(C3CC3)nc12 (some centres unmarked) [Example 1236] | > 200 nM
COc1cc(C(=O)NC[C@@](O)(c2cc3c(c(-c4ccc5c(c4)OC(F)(F)C5(F)F)n2)OC[C@]3(C)C(N)=O)C2CC2)cc2cn(C3CC3)nc12 [Example 1237] | > 200 nM
COc1cc(C(=O)NC[C@](O)(c2cc3c(c(-c4ccc5c(c4)OC(F)(F)C5(F)F)n2)OC[C@]3(C)C(N)=O)C2CC2)cc2cn(C3CC3)nc12 [Example 1238] | < 200 nM
COc1cc(C(=O)NC[C@@](O)(c2cc3c(c(C4=CCN(C(=O)OC(C)(C)C)CC4)n2)OC[C@]3(C)C(N)=O)C(F)(F)F)cc2cn(C3CC3)nc12 [Example 1239] | > 200 nM
COc1cc(C(=O)NCC(O)(c2cc3c(c(C4=CCOCC4)n2)OC[C@]3(C)C(N)=O)C(F)(F)F)cc2cn(C3CC3)nc12 (some centres unmarked) [Example 1240] | > 200 nM
COc1cc(C(=O)NC[C@](O)(c2cc3c(c(C4=CCN(C(=O)OC(C)(C)C)CC4)n2)OC[C@]3(C)C(N)=O)C(F)(F)F)cc2cn(C3CC3)nc12 [Example 1241] | > 200 nM
COc1cc(C(=O)NC[C@](O)(c2cc3c(c(-c4cc(F)cc(Cl)c4F)n2)OC[C@]3(C)C(N)=O)C(F)(F)F)cc2cn(C3CC3)nc12 [Example 1242] | < 200 nM
COc1cc(C(=O)NC[C@](O)(c2cc3c(c(-c4cc(Cl)cc(F)c4F)n2)OC[C@]3(C)C(N)=O)C(F)(F)F)cc2cn(C3CC3)nc12 [Example 1243] | < 200 nM
COc1cc(C(=O)NC[C@](O)(c2cc3c(c(-c4c(F)ccc(F)c4Cl)n2)OC[C@]3(C)C(N)=O)C(F)(F)F)cc2cn(C3CC3)nc12 [Example 1244] | < 200 nM
COc1cc(C(=O)NCC(O)(c2cc3c(c(-c4cc(F)c(Cl)c(F)c4)n2)OC[C@]3(C)C(N)=O)C(F)(F)F)cc2cn(C3CC3)nc12 (some centres unmarked) [Example 1245] | < 200 nM
COc1cc(C(=O)NC[C@@](O)(c2cc3c(c(-c4cc(F)cc(F)c4F)n2)OC[C@]3(C)C(N)=O)C(F)(F)F)cc2cn(C3CC3)nc12 [Example 1246] | < 200 nM
COc1cc(C(=O)NC[C@](O)(c2cc3c(c(-c4cc(F)cc(F)c4F)n2)OC[C@]3(C)C(N)=O)C(F)(F)F)cc2cn(C3CC3)nc12 [Example 1247] | < 200 nM
COc1cc(C(=O)NCC(O)(c2cc3c(c(-c4cc(F)cc(Cl)c4)n2)OC[C@]3(C)C(N)=O)C(F)(F)F)cc2cn(C3CC3)nc12 (some centres unmarked) [Example 1252] | < 200 nM
COc1cc(C(=O)NC[C@](O)(c2cc3c(c(-c4cccc(Cl)c4Cl)n2)OC[C@]3(C)C(N)=O)C(F)(F)F)cc2cn(C3CC3)nc12 [Example 1253] | < 200 nM

SMILES | EC50
COc1cc(C(=O)NC[C@](O)(c2cc3c(c(-c4cc(Cl)ccc4Cl)n2)OC[C@]3(C)C(N)=O)C(F)(F)F)cc2cn(C3CC3)nc12 [Example 1255] | < 200 nM
COc1cc(C(=O)NCC(O)(c2cc3c(c(-c4cc(Cl)cc(Cl)c4)n2)OC[C@]3(C)C(N)=O)C(F)(F)F)cc2cn(C3CC3)nc12 (some centres unmarked) [Example 1256] | < 200 nM
COc1cc(C(=O)NC[C@](O)(c2cc3c(c(-c4cc(Cl)cc(Cl)c4F)n2)OC[C@]3(C)C(N)=O)C(F)(F)F)cc2cn(C3CC3)nc12 [Example 1258] | < 200 nM
COc1cc(C(=O)NC[C@](O)(c2cc3c(c(-c4cc(Cl)cc(F)c4Cl)n2)OC[C@]3(C)C(N)=O)C(F)(F)F)cc2cn(C3CC3)nc12 [Example 1259] | < 200 nM
COc1cc(C(=O)NC[C@](O)(c2cc3c(c(-c4cc(F)cc(F)c4Cl)n2)OC[C@]3(C)C(N)=O)C(F)(F)F)cc2cn(C3CC3)nc12 [Example 1261] | < 200 nM
COc1cc(C(=O)NC[C@](O)(c2cc3c(c(-c4c(Cl)ccc(Cl)c4F)n2)OC[C@]3(C)C(N)=O)C(F)(F)F)cc2cn(C3CC3)nc12 [Example 1262] | < 200 nM
COc1cc(C(=O)NC[C@](O)(c2cc3c(c(-c4c(F)ccc(Cl)c4Cl)n2)OC[C@]3(C)C(N)=O)C(F)(F)F)cc2cn(C3CC3)nc12 [Example 1263] | < 200 nM
COc1cc(C(=O)NC[C@](O)(c2cc3c(c(-c4cc(F)c(Cl)cc4Cl)n2)OC[C@]3(C)C(N)=O)C(F)(F)F)cc2cn(C3CC3)nc12 [Example 1265] | < 200 nM
COc1cc(C(=O)NCC(O)(c2cc3c(c(-c4cc(F)c(Cl)c(Cl)c4)n2)OC[C@]3(C)C(N)=O)C(F)(F)F)cc2cn(C3CC3)nc12 (some centres unmarked) [Example 1266] | < 200 nM
COc1cc(C(=O)NC[C@](O)(c2cc3c(c(-c4cc(Cl)c(Cl)cc4F)n2)OC[C@]3(C)C(N)=O)C(F)(F)F)cc2cn(C3CC3)nc12 [Example 1267] | < 200 nM
COc1cc(C(=O)NC[C@](O)(c2cc3c(c(C4CCC(F)(F)CC4)n2)OC[C@]3(C)C(N)=O)C(F)(F)F)cc2cn(C3CC3)nc12 [Example 1268] | < 200 nM
COc1cc(C(=O)NC[C@](O)(c2cc3c(c(N4CCC(F)(F)CC4)n2)OC[C@]3(C)C(N)=O)C(F)(F)F)cc2cn(C3CC3)nc12 [Example 1270] | < 200 nM
COc1cc(C(=O)NC[C@](O)(c2cc3c(c(N4CCCC(F)(F)C4)n2)OC[C@]3(C)C(N)=O)C(F)(F)F)cc2cn(C3CC3)nc12 [Example 1271] | < 200 nM
COc1cc(C(=O)NC[C@](O)(c2cc3c(c(-c4cc(F)c(F)c(F)c4)n2)OC[C@]3(C)C(N)=O)C2CC2)cc2cn(C3CC3)nc12 [Example 1273] | < 200 nM
COc1cc(C(=O)NC[C@](O)(c2cc3c(c(-c4cc(F)cc(F)c4)n2)OC[C@]3(C)C(N)=O)C2CC2)cc2cn(C3CC3)nc12 [Example 1276] | < 200 nM
COc1cc(C(=O)NC[C@](O)(c2cc3c(c(-c4cc(F)c(F)c(F)c4F)n2)OC[C@]3(C)C(N)=O)C2CC2)cc2cn(C3CC3)nc12 [Example 1278] | < 200 nM
COc1cc(C(=O)NC[C@](O)(c2cc3c(c(-c4cc(Cl)cc(Cl)c4)n2)OC[C@]3(C)C(N)=O)C2CC2)cc2cn(C3CC3)nc12 [Example 1281] | < 200 nM

The next lines start with the values.

EC50 | SMILES
< 200 nM | Cc1cnc2c(OC(F)F)cc(C(=O)NC[C@](O)(c3cc4c(c(-c5ccc(C(F)(F)F)cc5)n3)OC[C@]4(C)C(N)=O)C3CC3)cc2c1 [Example 1209]
< 200 nM | COc1cc(C(=O)NC[C@](O)(c2cc3c(c(-c4ccc5c(c4)OC(F)(F)O5)n2)OC[C@]3(C)C(N)=O)C2CC2)cc2cc(C(F)F)nnc12 [Example 1210]
< 200 nM | Cc1cnc2c(OC(F)F)cc(C(=O)NC[C@](O)(c3cc4c(c(-c5cccc(F)c5Cl)n3)OC[C@]4(C)C(N)=O)C3CC3)cc2c1 [Example 1211]
< 200 nM | C[C@]1(C(N)=O)COc2c1cc([C@@](O)(CNC(=O)c1cc(OC(F)F)c3nn(C4CC4)cc3c1)C1CC1)nc2-c1cc(Cl)c(F)cc1F [Example 1212]
< 200 nM | Cc1cnc2c(OC(F)F)cc(C(=O)NC[C@](O)(c3cc4c(c(-c5cc(F)c(F)c(Cl)c5)n3)OC[C@]4(C)C(N)=O)C3CC3)cc2c1 [Example 1213]
< 200 nM | Cc1cnc2c(OC(F)F)cc(C(=O)NC[C@](O)(c3cc4c(c(-c5ccc(Cl)c(F)c5F)n3)OC[C@]4(C)C(N)=O)C3CC3)cc2c1 [Example 1214]
< 200 nM | Cc1cnc2c(OC(F)F)cc(C(=O)NC[C@](O)(c3cc4c(c(-c5ccc(F)cc5Cl)n3)OC[C@]4(C)C(N)=O)C3CC3)cc2c1 [Example 1215]
< 200 nM | [2H]c1nc2c(OC)cc(C(=O)NC[C@](O)(c3cc4c(c(-c5cc(Cl)c(F)cc5F)n3)OC[C@]4(C)C(N)=O)C3CC3)cc2cc1Br [Example 1216]
< 200 nM | COc1cc(C(=O)NC[C@](O)(c2cc3c(c(-c4ccc(Cl)cc4Cl)n2)OC[C@]3(C)C(N)=O)C(F)(F)F)cc2cn(C3CC3)nc12 [Example 1254]
< 200 nM | COc1cc(C(=O)NC[C@](O)(c2cc3c(c(-c4ccc(Cl)c(Cl)c4F)n2)OC[C@]3(C)C(N)=O)C(F)(F)F)cc2cn(C3CC3)nc12 [Example 1257]
< 200 nM | COc1cc(C(=O)NC[C@](O)(c2cc3c(c(-c4ccc(Cl)c(F)c4Cl)n2)OC[C@]3(C)C(N)=O)C(F)(F)F)cc2cn(C3CC3)nc12 [Example 1260]
< 200 nM | [2H]C([2H])([2H])c1nc2c(OC)cc(C(=O)NC[C@](O)(c3cc4c(c(-c5cc(Br)c(F)cc5F)n3)OC[C@]4(C)C(N)=O)C3CC3)cc2cc1Cl [Example 1272]
< 200 nM | COc1cc(C(=O)NC[C@](O)(c2cc3c(c(-c4c(F)ccc(F)c4F)n2)OC[C@]3(C)C(N)=O)C2CC2)cc2cn(C3CC3)nc12 [Example 1274]
< 200 nM | COc1cc(C(=O)NC[C@](O)(c2cc3c(c(-c4cc(Cl)c(F)cc4Cl)n2)OC[C@]3(C)C(N)=O)C2CC2)cc2cn(C3CC3)nc12 [Example 1275]
< 200 nM | COc1cc(C(=O)NC[C@](O)(c2cc3c(c(-c4ccc(F)cc4F)n2)OC[C@]3(C)C(N)=O)C2CC2)cc2cn(C3CC3)nc12 [Example 1277]
< 200 nM | COc1cc(C(=O)NC[C@](O)(c2cc3c(c(-c4ccc(Cl)cc4Cl)n2)OC[C@]3(C)C(N)=O)C2CC2)cc2cn(C3CC3)nc12 [Example 1279]
< 200 nM | COc1cc(C(=O)NC[C@](O)(c2cc3c(c(-c4cc(Cl)ccc4Cl)n2)OC[C@]3(C)C(N)=O)C2CC2)cc2cn(C3CC3)nc12 [Example 1280]
